This note sets out measurements from patent publication US7598046B2 (priority 2003, dated 2009).

The test system of this assay is PrP^Sc (conversion of PrP^C into PrP^Sc). It is filed as biochemical, hamster. As to conditions: for prion replication in vitro (PMCA signal): 30 min at 4° C., without cyclodextrin, 3200-fold and 12800-fold dilutions of scrapie brain homogenate.

Where two headings read alike, the source gives them in different places.

In the case of methyl-β-cyclodextrin, the “prion replication (PrP^Sc signal after PMCA): complete inhibition observed or not” value (5 mM methyl-β-cyclodextrin, normal brain homogenate treated 30 min, 10 cycles of PMCA, Western blot after PK) is “not”. The “prion replication (PrP^Sc signal after PMCA)” value is on record as “complete inhibition” (10 mM methyl-β-cyclodextrin, normal brain homogenate treated 30 min, 10 cycles of PMCA, Western blot after PK) and “complete inhibition” (20 mM methyl-β-cyclodextrin, normal brain homogenate treated 30 min, 10 cycles of PMCA, Western blot after PK). With Apolipoprotein E, for the setting “1 and 10 μg hApo E”, the “prion replication in vitro (PMCA signal)” value is “increase”. Consider Apolipoprotein B, for which the “prion replication in vitro (PMCA signal)” value (8 and 16 μg hApo B) is given as “increase”.
